The results in this text go back to patent US11939314B2, “Quinolin-2-one derivatives” (MERCK PATENT GMBH, priority 2016, dated 2024).

Assay [1] deals with T1, PDGFRalpha(V561D) (Homo sapiens, UniProt P16234, V561D).
T1 construct: recombinant human PDGFRalpha, amino acids 550end containing the V561 D mutation; 6His (N)
As to the kind of experiment: PDGFRalpha(V561D) assay. The conditions noted are these: recombinant human PDGFRalpha aa 550-end, 200 μM ATP, 1.4E-06 means 1.4×10^−6, read-out: Inhibition (IC50) of PDGFRα (V561D). Format: biochemical. A digest of the protocol: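 Radiometric filter-binding assay: substrate phosphorylation by recombinant N-His-tagged human PDGFRα 550-end V561D was quenched with 3% phosphoric acid after 40 min at room temperature, then counted.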

The target in assay [2] is T2, c-Kit(V654A) (Homo sapiens, UniProt P10721, V654A).
T2 construct: amino acids 544-end containing the V654A mutation; GST (N)
As to the kind of experiment: c-Kit(V654A) assay. Format: biochemical. The conditions noted are these: recombinant human c-Kit aa 544-end, 200 μM ATP, 1.4E-06 means 1.4×10^−6, read-out: Inhibition (IC50) of c-KIT (V654A). A digest of the protocol: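 Radiometric filter-binding read-out: substrate 33P incorporation counted by scintillation after P30 filtermat washes in 75 mM phosphoric acid and methanol. Enzyme: N-GST recombinant human c-Kit aa 544-end carrying V654A.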

T2 sequence (P10721 544-976 V654A): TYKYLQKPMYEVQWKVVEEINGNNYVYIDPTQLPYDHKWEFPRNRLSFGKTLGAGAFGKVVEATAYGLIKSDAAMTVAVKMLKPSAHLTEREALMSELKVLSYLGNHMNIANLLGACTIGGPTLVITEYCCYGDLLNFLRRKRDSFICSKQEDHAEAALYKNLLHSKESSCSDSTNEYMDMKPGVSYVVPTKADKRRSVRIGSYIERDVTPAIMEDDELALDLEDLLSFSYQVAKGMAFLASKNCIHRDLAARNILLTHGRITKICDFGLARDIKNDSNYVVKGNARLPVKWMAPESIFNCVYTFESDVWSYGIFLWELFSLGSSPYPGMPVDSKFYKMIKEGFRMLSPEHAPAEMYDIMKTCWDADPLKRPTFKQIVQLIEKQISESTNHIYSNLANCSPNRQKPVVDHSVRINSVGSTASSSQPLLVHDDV
T1 sequence (P16234 550-1089 V561D): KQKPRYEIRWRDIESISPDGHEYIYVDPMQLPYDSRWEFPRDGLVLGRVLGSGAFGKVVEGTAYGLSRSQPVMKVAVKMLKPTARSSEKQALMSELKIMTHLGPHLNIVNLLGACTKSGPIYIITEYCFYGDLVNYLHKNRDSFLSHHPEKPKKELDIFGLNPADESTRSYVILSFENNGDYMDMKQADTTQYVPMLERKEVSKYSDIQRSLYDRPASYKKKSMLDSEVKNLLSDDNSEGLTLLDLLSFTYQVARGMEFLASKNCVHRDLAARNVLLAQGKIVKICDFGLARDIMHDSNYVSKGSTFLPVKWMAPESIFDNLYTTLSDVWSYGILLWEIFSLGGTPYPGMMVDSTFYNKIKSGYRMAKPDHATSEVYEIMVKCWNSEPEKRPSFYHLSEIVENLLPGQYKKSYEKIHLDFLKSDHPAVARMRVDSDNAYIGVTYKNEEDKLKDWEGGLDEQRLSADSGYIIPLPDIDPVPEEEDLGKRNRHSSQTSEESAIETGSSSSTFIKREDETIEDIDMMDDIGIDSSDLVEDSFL

As usually defined, the IC50 is the midpoint of a concentration-inhibition curve. As to `O=C(c1cccc(-n2cc(-c3cc4cc(F)c(F)cc4[nH]c3=O)nn2)c1)N1CCC(N2CCCC2)C1` (stereo not drawn) [A108, 3-{1-[3-([1,3′]bipyrrolidinyl-1′-carbonyl)-phenyl]-1H-[1,2,3]triazol-4-yl}-6,7-difluoro-1H-quinolin-2-one], the results for the 50% inhibitory concentration (IC50) in assay [1] and in assay [2] were 0.081 µM and 0.083 µM, respectively.

In the case of `COC[C@@H]1CCN(C(=O)c2ccc(-n3cc(-c4cc5cc(F)c(F)cc5[nH]c4=O)nn3)cc2)C1` [A200, 6,7-difluoro-3-{1-[4-((R)-3-methoxymethyl-pyrrolidine-1-carbonyl)-phenyl]-1H-[1,2,3]triazol-4-yl}-1H-quinolin-2-one], the values for the half-maximal inhibitory concentration (IC50) in assay [1] and in assay [2] were 0.14 µM and 0.18 µM, respectively.

As for `COCCO[C@H]1CCN(C(=O)c2ccc(-n3cc(-c4cc5cc(F)ccc5[nH]c4=O)nn3)cc2)C1` [A251, 6-fluoro-3-(1-{4-[(S)-3-(2-methoxy-ethoxy)-pyrrolidine-1-carbonyl]-phenyl}-1H-[1,2,3]triazol-4-yl)-1H-quinolin-2-one], the IC50 in assay [1] is 0.4 µM; in assay [2], 0.16 µM.

Take `CN1CCC(N(C)C(=O)c2ccc(-n3cc(-c4cc5ccccc5[nH]c4=O)nn3)cc2)CC1` [A59, N-methyl-N-(1-methyl-piperidin-4-yl)-4-[4-(2-oxo-1,2-dihydro-quinolin-3-yl)-[1,2,3]triazol-1-yl]-benzamide]: the IC50 was 0.046 µM in assay [1] and 0.076 µM in assay [2].

In the case of `COCCCN1CCN(C(=O)c2ccc(-n3cc(-c4cc5cccnc5[nH]c4=O)nn3)cc2)CC1` [A89, 3-(1-{4-[4-(3-methoxy-propyl)-piperazine-1-carbonyl]-phenyl}-1H-[1,2,3]triazol-4-yl)-1H-[1,8]naphthyridin-2-one], the 50% inhibitory concentration (IC50) was 0.008 µM in assay [1] and 0.036 µM in assay [2].

As for `CO[C@@H]1CN(C(=O)c2ccc(-n3cc(-c4cc5cc(Cl)ccc5[nH]c4=O)nn3)cc2)C[C@H]1OC` [A271, 6-chloro-3-{1-[4-((3R,4R)-3,4-dimethoxy-pyrrolidine-1-carbonyl)-phenyl]-1H-[1,2,3]triazol-4-yl}-1H-quinolin-2-one], the 50% inhibitory concentration (IC50) in assay [1] is 0.00051 µM; in assay [2], 0.05 µM.

Consider `O=C(c1ccc(-n2cc(-c3cc4ccccc4[nH]c3=O)nn2)cc1)N1CCOCC1` [A2, 3-{1-[4-(morpholine-4-carbonyl)-phenyl]-1H-[1,2,3]triazol-4-yl}-1H-quinolin-2-one], for which the IC50 in assay [1] is 0.012 µM; in assay [2] it was 0.051 µM.

`CN(C)C1CCN(C(=O)c2ccc(-n3cc(-c4cc5ccccc5[nH]c4=O)nn3)cc2)CC1` [A61, 3-{1-[4-(4-dimethylamino-piperidine-1-carbonyl)-phenyl]-1H-[1,2,3]triazol-4-yl}-1H-quinolin-2-one]: the IC50 was found to be 0.011 µM in assay [1] and 0.029 µM in assay [2].

In the case of `O=C(c1ccc(-n2cc(-c3cc4ccc(Cl)cc4[nH]c3=O)nn2)cc1)N1CCOCC1` [A82, 7-chloro-3-{1-[4-(morpholine-4-carbonyl)-phenyl]-1H-[1,2,3]triazol-4-yl}-1H-quinolin-2-one], the values for the IC50 in assay [1] and in assay [2] were 0.003 µM and 0.014 µM, respectively.

As to `O=C(c1ccc(-n2cc(-c3cc4ccccc4[nH]c3=O)nn2)cc1)N1CCNCC1` [A50, 3-{1-[4-(piperazine-1-carbonyl)-phenyl]-1H-[1,2,3]triazol-4-yl}-1H-quinolin-2-one], the results for the IC50 in assay [1] and in assay [2] were 0.014 µM and 0.024 µM, respectively.

`CN1CCC(COc2ccc(-n3cc(-c4cc5ccccc5[nH]c4=O)nn3)cc2)CC1` [A60, 3-{1-[4-(1-methyl-piperidin-4-ylmethoxy)-phenyl]-1H-[1,2,3]triazol-4-yl}-1H-quinolin-2-one]: the IC50 in assay [1] was found to be 0.033 µM; in assay [2] it was 0.038 µM.

For the molecule `O=C(c1ccc(-n2cc(-c3cc4cc(Cl)ccc4[nH]c3=O)nn2)cc1)N1CC[C@H](F)C1` [A266, 6-chloro-3-{1-[4-((S)-3-fluoro-pyrrolidine-1-carbonyl)-phenyl]-1H-[1,2,3]triazol-4-yl}-1H-quinolin-2-one], the IC50 in assay [1] is 0.0011 µM; in assay [2] it was 0.04 µM.
